Measured values taken from ChEMBL document CHEMBL3352551, “Synthesis and biological evaluation of novel allosteric enhancers of the A1 adenosine receptor based on 2-amino-3-(4'-chlorobenzoyl)-4-substituted-5-arylethynyl thiophene” (J Med Chem, 2014).
Active and inactive are the calls of the source. The rule behind the calls is not given here.

Assays:
[1] = biological target: T1, Adenosine receptor A1 (Homo sapiens) (UniProt P30542); assay: Allosteric enhancer activity at human adenosine A1 receptor expressed in CHO cell membranes assessed as shift in CCPA binding Ki level at 10 uM by [3H]DPCPX competition binding assay
T1 sequence (whole entry): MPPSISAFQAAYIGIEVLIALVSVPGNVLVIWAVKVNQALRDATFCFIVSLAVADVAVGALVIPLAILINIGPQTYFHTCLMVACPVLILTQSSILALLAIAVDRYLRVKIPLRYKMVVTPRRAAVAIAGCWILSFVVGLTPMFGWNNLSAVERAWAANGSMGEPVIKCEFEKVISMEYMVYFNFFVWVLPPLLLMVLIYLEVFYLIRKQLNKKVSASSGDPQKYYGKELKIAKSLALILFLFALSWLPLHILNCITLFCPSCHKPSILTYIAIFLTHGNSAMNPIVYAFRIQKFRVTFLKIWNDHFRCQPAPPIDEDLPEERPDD

[2] = biological target: T1, Adenosine receptor A1 (Homo sapiens); assay: Allosteric enhancer activity at human adenosine A1 receptor expressed in CHO cell membranes assessed as shift in [3H]CCPA Bmax level at 10 uM by saturation binding assay
[3] = biological target: T1, Adenosine receptor A1 (Homo sapiens); assay: Displacement of [3H]DPCPX from human adenosine A1 receptor expressed in CHO cell membranes at 10 uM
[4] = biological target: T1, Adenosine receptor A1 (Homo sapiens); assay: Allosteric enhancer activity at human adenosine A1 receptor expressed in CHO cells assessed as inhibition of forskolin-induced cAMP production at 100 nM in presence of 1 pM CCPA; assay type: functional, cell-based
[5] = biological target: Adenosine receptor A2a (Homo sapiens) (UniProt P29274); assay: Displacement of [3H]ZM241385 from human adenosine A2A receptor expressed in CHO cell membranes at 10 uM
[6] = biological target: T1, Adenosine receptor A1 (Homo sapiens); assay: Allosteric enhancer activity at human adenosine A1 receptor expressed in CHO cells assessed as inhibition of forskolin-induced cAMP production at 10 uM; assay type: functional, cell-based
[7] = biological target: T2, Adenosine receptor A3 (Homo sapiens) (UniProt P0DMS8); assay: Displacement of [3H]MRE-3008-F20 from human adenosine 3 receptor expressed in CHO cell membranes at 10 uM
T2 sequence (whole entry): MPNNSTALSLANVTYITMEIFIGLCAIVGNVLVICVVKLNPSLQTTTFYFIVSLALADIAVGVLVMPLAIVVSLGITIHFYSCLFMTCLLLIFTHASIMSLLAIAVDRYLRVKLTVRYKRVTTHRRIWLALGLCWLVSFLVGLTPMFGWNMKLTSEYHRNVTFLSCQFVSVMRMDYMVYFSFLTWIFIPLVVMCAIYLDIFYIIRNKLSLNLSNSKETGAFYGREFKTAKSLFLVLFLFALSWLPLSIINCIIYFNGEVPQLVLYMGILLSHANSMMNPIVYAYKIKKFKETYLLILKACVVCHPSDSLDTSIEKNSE

[8] = biological target: T1, Adenosine receptor A1 (Homo sapiens); assay: Allosteric enhancer activity at human adenosine A1 receptor expressed in CHO cell membranes assessed as shift in [3H]CCPA Kd level at 10 uM by saturation binding assay

Adenosine receptor A2a (Homo sapiens), sequence (P29274 whole entry): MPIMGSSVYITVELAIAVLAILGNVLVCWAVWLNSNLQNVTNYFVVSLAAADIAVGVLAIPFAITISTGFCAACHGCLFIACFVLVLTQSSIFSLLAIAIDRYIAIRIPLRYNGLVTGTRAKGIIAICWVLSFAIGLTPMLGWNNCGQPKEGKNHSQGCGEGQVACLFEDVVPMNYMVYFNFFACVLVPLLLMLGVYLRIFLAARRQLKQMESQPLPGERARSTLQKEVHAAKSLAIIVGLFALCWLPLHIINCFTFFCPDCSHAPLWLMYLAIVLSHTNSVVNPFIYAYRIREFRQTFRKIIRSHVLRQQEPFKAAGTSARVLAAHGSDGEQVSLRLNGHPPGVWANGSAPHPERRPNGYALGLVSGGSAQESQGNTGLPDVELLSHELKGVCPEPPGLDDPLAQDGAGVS

SMILES | fold change (FC) [1] | fold change (FC) [2] | inhibition [3] [%] | inhibition [4] [%] | inhibition [5] [%] | inhibition [6] [%] | inhibition [7] [%] | Activity [8]
CC(C)(C)Cc1c(CCc2ccccc2)sc(N)c1C(=O)c1ccc(Cl)cc1 | 3.5 | 3.3 | < 15 | 41 | < 15 | 40 | < 15 | –
Cc1ccc(CCc2sc(N)c(C(=O)c3ccc(Cl)cc3)c2CC(C)(C)C)cc1 | 3.8 | 5 | < 15 | 45 | < 15 | 43 | < 15 | –
Cc1c(C#Cc2ccccc2)sc(N)c1C(=O)c1ccc(Cl)cc1 | 1.5 | 2.5 | < 15 | 34 | < 15 | 27 | < 15 | –
COc1ccc(C#Cc2sc(N)c(C(=O)c3ccc(Cl)cc3)c2CC(C)(C)C)cc1 | 8.2 | 7.4 | < 15 | 79 | < 15 | 71 | < 15 | inactive
Nc1sc(CCc2ccccc2)c(-c2ccccc2)c1C(=O)c1ccc(Cl)cc1 | 1.6 | 2.2 | < 15 | 24 | < 15 | 25 | < 15 | –
Nc1sc(C#Cc2ccccc2)c(CN2CCN(c3ccc(Cl)cc3)CC2)c1C(=O)c1ccc(Cl)cc1 | 3.6 | 3.4 | < 15 | 35 | < 15 | 35 | < 15 | –
Cc1cc(C)c(C#Cc2sc(N)c(C(=O)c3ccc(Cl)cc3)c2CC(C)(C)C)cc1C | 7.5 | 7 | < 15 | 67 | < 15 | 68 | < 15 | –
CC(C)(C)Cc1c(C#Cc2ccsc2)sc(N)c1C(=O)c1ccc(Cl)cc1 | 3.9 | 5.7 | < 15 | 63 | < 15 | 60 | < 15 | –
Nc1sc(C#Cc2ccccc2)c(CN2CCN(c3ccc(Cl)c(Cl)c3)CC2)c1C(=O)c1ccc(Cl)cc1 | 1.7 | 2.1 | < 15 | 24 | < 15 | 22 | < 15 | –
CCCCCc1ccc(C#Cc2sc(N)c(C(=O)c3ccc(Cl)cc3)c2CC(C)(C)C)cc1 | 3.7 | 5.5 | < 15 | 62 | < 15 | 60 | < 15 | –
CCCCCC#Cc1sc(N)c(C(=O)c2ccc(Cl)cc2)c1CC(C)(C)C | 4.1 | 6.3 | < 15 | 69 | < 15 | 66 | < 15 | inactive
Nc1sc(-c2ccccc2)c(CN2CCN(c3ccccc3)CC2)c1C(=O)c1ccc(Cl)cc1 | 8.3 | 11.5 | – | – | – | – | – | –
Nc1sc(C#Cc2ccccc2)c(CN2CCN(c3ccc(Cl)c(C(F)(F)F)c3)CC2)c1C(=O)c1ccc(Cl)cc1 | 2.4 | 2.7 | < 15 | 36 | < 15 | 30 | < 15 | –
Nc1sc(C#Cc2ccccc2)c(CN2CCN(c3ccccc3)CC2)c1C(=O)c1ccc(Cl)cc1 | 2.8 | 2.8 | < 15 | 31 | < 15 | 29 | < 15 | –
COc1ccc(-c2sc(N)c(C(=O)c3ccc(Cl)cc3)c2CC(C)(C)C)cc1 | 4.3 | 6.1 | – | – | – | – | – | –
Nc1sc(C#Cc2ccccc2)cc1C(=O)c1ccc(Cl)cc1 | 1.5 | 2 | < 15 | 25 | < 15 | 20 | < 15 | –

SMILES | fold change (FC) [1] | fold change (FC) [2] | inhibition [3] [%] | inhibition [4] [%] | inhibition [5] [%] | inhibition [6] [%] | inhibition [7] [%] | Activity [8]
COc1ccc(C#Cc2sc(N)c(C(=O)c3ccc(Cl)cc3)c2CC(C)(C)C)cc1OC | 6.8 | 7.1 | < 15 | 74 | < 15 | 72 | < 15 | –
Nc1sc(C#Cc2ccccc2)c(-c2ccccc2)c1C(=O)c1ccc(Cl)cc1 | 1.5 | 1.9 | < 15 | 25 | < 15 | 24 | < 15 | –
Cc1cccc(C#Cc2sc(N)c(C(=O)c3ccc(Cl)cc3)c2CC(C)(C)C)c1 | 7.1 | 7.5 | < 15 | 71 | < 15 | 68 | < 15 | –
Cc1ccc(C#Cc2sc(N)c(C(=O)c3ccc(Cl)cc3)c2CC(C)(C)C)cc1 | 7.5 | 7.2 | < 15 | 73 | < 15 | 70 | < 15 | –
CC(C)(C)Cc1c(C#CC2CCCCC2)sc(N)c1C(=O)c1ccc(Cl)cc1 | 4.8 | 8 | < 15 | 71 | < 15 | 67 | < 15 | –
Nc1sc(C#Cc2ccccc2)c(CN2CCN(c3ccc(C(F)(F)F)cc3)CC2)c1C(=O)c1ccc(Cl)cc1 | 3 | 2.9 | < 15 | 33 | < 15 | 31 | < 15 | –
Cc1ccc(C)c(C#Cc2sc(N)c(C(=O)c3ccc(Cl)cc3)c2CC(C)(C)C)c1 | 4 | 6.2 | < 15 | 66 | < 15 | 62 | < 15 | –
Cc1ccc(C#Cc2sc(N)c(C(=O)c3ccc(Cl)cc3)c2C)cc1 | 1.7 | 2.3 | < 15 | 36 | < 15 | 31 | < 15 | –
Nc1sc(C#Cc2ccccc2)c(CN(C2CCCCC2)C2CCCCC2)c1C(=O)c1ccc(Cl)cc1 | 3.7 | 1.2 | < 15 | 19 | < 15 | 10 | < 15 | –
Cc1c(CCc2ccccc2)sc(N)c1C(=O)c1ccc(Cl)cc1 | 1.6 | 2.2 | < 15 | 27 | < 15 | 28 | < 15 | –
Cc1ccc(-c2sc(N)c(C(=O)c3ccc(Cl)cc3)c2CC(C)(C)C)cc1 | 6 | 6.4 | – | – | – | – | – | –
CC(C)(C)Cc1c(-c2ccccc2)sc(N)c1C(=O)c1ccc(Cl)cc1 | 4.8 | 6.9 | – | – | – | – | – | –
Nc1sc(C#Cc2ccccc2)c(CN2CCN(c3ccc(F)cc3)CC2)c1C(=O)c1ccc(Cl)cc1 | 3.9 | 3.9 | < 15 | 38 | < 15 | 37 | < 15 | –
Nc1sc(CCc2ccccc2)cc1C(=O)c1ccc(Cl)cc1 | 1.3 | 1.7 | < 15 | 20 | < 15 | 22 | < 15 | –
Nc1sc(-c2ccccc2)c(CN(C2CCCCC2)C2CCCCC2)c1C(=O)c1ccc(Cl)cc1 | 3.2 | 3.5 | – | – | – | – | – | –
